Our source for the GI50 and TGI values is PubChem BioAssay (NCI).

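Dose response: 5 concentrations. Exposure: 48 h. Format: 96-well plates. Endpoint: linear interpolation; highest concentration if not reached. The concentration for 50% growth inhibition is given as GI50. Definition used: TGI = concentration required for complete inhibition of growth.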

The test concerns MDA-MB-468 breast. Briefly: NCI tumour cell line growth inhibition, 48 h.
In the case of `Cc1cc(Cl)cc2c(N=Nc3ccc(S(N)(=O)=O)cc3)c(O)[nH]c12`, the GI50 was more than 25 µM and the TGI was more than 25 µM.

On to `C[C@]12CC[C@@H]3c4cc(OC(F)F)c(O)cc4CC[C@H]3[C@@H]1CC[C@@H]2OS(N)(=O)=O`, for which the GI50 was 0.504 µM and the TGI is 30.4 µM. Regarding `C[C@]12CCc3nc(Nc4cccc(O)c4)sc3C1=CC[C@@H]1[C@@H]2CC[C@]2(C)/C(=N\NC(N)=S)CC[C@@H]12`, the GI50 is 1.86 µM and the TGI was found to be 4.23 µM. Regarding `COc1ccc2sc3cccc(NCCN(C)C)c3c(=O)c2c1`, the GI50 was 2 µM and the TGI stood at 4.5 µM. In the case of `COc1cc2c(c(OC)c1OC)-c1ccc(OC)c(=O)cc1[C@@H](N)CC2`, the GI50 is less than 0.01 µM. In the case of `COC(=O)[C@@H](C)C[C@H](Cc1cn(C)c2ccccc12)NC(=O)c1csc([C@@H](C[C@H](C(C)C)N(C)C(=O)[C@@H](NC(=O)[C@H]2CCCCN2C)C(C)C)OC(C)=O)n1`, the GI50 was 0.00585 µM and the TGI was more than 16.7 µM. With `CCOC(=O)C1=C(C)N=c2s/c(=C\c3ccccc3O)c(=O)n2C1c1ccc(OC)c2ccccc12` (stereo unspecified), the GI50 was 4.55 µM and the TGI stood at 21.2 µM.

With `O=C1/C(=C\c2ccc(F)cc2)CN(C(=O)c2ccccc2)C/C1=C\c1ccc(F)cc1`, the GI50 is 1.63 µM and the TGI amounted to 3.71 µM. Regarding `N#Cc1c(NC(=O)NCc2ccccc2)sc2c1CCCC2`, the GI50 was 0.425 µM and the TGI turned out to be 11.3 µM.

As to `CN(C)c1ccc(/C=C/c2ccnc3c(O)cccc23)cc1`, the GI50 was 0.574 µM and the TGI amounted to 3.34 µM.

`CC[C@H]1CN2CCc3cc(OC)c(OC)cc3C2C[C@@H]1CC1NCCc2cc(OC)c(OC)cc21` (stereo partly specified): the GI50 is 0.0118 µM and the TGI amounted to 0.0377 µM. Consider `CCCCCCCC/C=C/CCCCCCCC1=NC(C)(C)CN1CC(C)O` (stereo unspecified), for which the GI50 is 4.87 µM and the TGI was 10.9 µM. On the same counts, the results for `COc1cc2nccc(Oc3ccc(NC(=O)NC4CC4)c(Cl)c3)c2cc1C(N)=O` are 12.5 µM and more than 80.8 µM. As for `CCOC(=O)[C@@H](C)C[C@H](Cc1ccccc1)NC(=O)c1nc([C@@H](C[C@H](C(C)C)N(C)C(=O)[C@@H](NC(=O)[C@H]2CCCCN2C)C(C)C)OC(C)=O)sc1CCOCc1ccccc1`, the GI50 is 0.0374 µM and the TGI stood at 0.492 µM. On to `NC1=CC(=O)c2cccnc2C1=O`, for which the GI50 is 1.35 µM and the TGI was found to be 3.03 µM. For `CCN(CC)c1ccc(NC2=C(Cl)C(=O)c3nc(C)ccc3C2=O)cc1`, the GI50 was 1.88 µM and the TGI is 4.05 µM.

With `O=C1CC[C@H](N2C(=O)c3cccc4c(Cc5ccc(CN6CCOCC6)cc5)ccc2c34)C(=O)N1`, the GI50 is 2.73 µM and the TGI is 62.5 µM. With `COc1ccc(N=Cc2c(O)ccc3c2oc2cc(Cl)c(O)c(Cl)c23)cc1`, the GI50 was 14.2 µM and the TGI is 67.6 µM.

As for `COc1cccc(CCC2CCCN(c3cc(C)nc(N)n3)C2)c1` (stereo unspecified), the GI50 was 0.18 µM and the TGI stood at 0.952 µM. Consider `CSC1=Nc2c(c(C)c(-c3ccccc3)n2CCCN2CCCCC2)C2=NC(=O)C[C@H](C)N12`, for which the GI50 was 2.46 µM and the TGI was 9.51 µM.

Turning to `Cc1cc(=O)[nH]c(N/N=C/c2cc(Br)ccc2O)n1`, the GI50 is 0.46 µM and the TGI was 16.5 µM. For `CSc1ccc(-c2ccccc(=O)c2O)cc1`, the GI50 was 0.334 µM and the TGI is 4.18 µM. On to `CC1(C)N=C(N)N=C(N)N1c1ccc(CCCCc2ccccc2)c(Cl)c1`, for which the GI50 was 0.0196 µM and the TGI came to 1.12 µM.

For `CCOC(=O)c1ccc(Nc2sc(C(=O)c3ccc(Br)cc3)c(N)c2C#N)cc1`, the GI50 is 0.666 µM and the TGI was more than 100 µM. For `c1ccc(N2N=C(c3cccc(Nc4ccncc4)c3)CC2c2ccc3c(c2)OCO3)cc1` (stereo unspecified), the GI50 is 1.47 µM and the TGI worked out at 3 µM. Regarding `Cc1cccc(-c2[nH]ncc2-c2ccc3ncccc3n2)n1`, the GI50 was 7.34 µM and the TGI is more than 16.5 µM.
